Measured values published in PubChem BioAssay AID248 (DTP/NCI, 2004).
Toxic doses and inconclusive results are not listed. Rule as the data show it: active = T/C of 150% or more; inactive = T/C below 125%.

System: L1210 leukemia ip in BDF1 mice, survival T/C
Assay: NCI In Vivo Anticancer Drug Screen. Data for tumor model L1210 Leukemia (intraperitoneal) in B6D2F1 (BDF1) mice
Conditions: endpoint: mean survival time, higher = longer survival
Summary of the method: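 Tumor was transplanted into mice, which were then dosed with test compound or vehicle alone. Survival was recorded for each group, and the treated figure was expressed relative to the control figure.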

[1] = dose: 100.0 mg/kg/injection, schedule: Q04DX003 (ip), vehicle: saline with Tween-80
[2] = dose: 200.0 mg/kg/injection, schedule: Q04DX003 (ip), vehicle: saline with Tween-80
[3] = dose: 400.0 mg/kg/injection, schedule: Q04DX003 (ip), vehicle: saline with Tween-80
[4] = dose: 100.0 mg/kg/injection, schedule: Q04DX003 (ip), vehicle: Klucel (hydroxypropylcellulose) (HPC)
[5] = dose: 400.0 mg/kg/injection, schedule: Q04DX003 (ip), vehicle: Klucel (hydroxypropylcellulose) (HPC)
[6] = dose: 200.0 mg/kg/injection, schedule: Q01DX009 (ip), vehicle: Klucel (hydroxypropylcellulose) (HPC)
[7] = dose: 400.0 mg/kg/injection, schedule: Q01DX009 (ip), vehicle: Klucel (hydroxypropylcellulose) (HPC)
[8] = dose: 100.0 mg/kg/injection, schedule: Q04DX002 (ip), vehicle: Klucel (hydroxypropylcellulose) (HPC)
[9] = dose: 200.0 mg/kg/injection, schedule: Q04DX002 (ip), vehicle: Klucel (hydroxypropylcellulose) (HPC)
[10] = dose: 400.0 mg/kg/injection, schedule: Q04DX002 (ip), vehicle: Klucel (hydroxypropylcellulose) (HPC)
[11] = dose: 100.0 mg/kg/injection, schedule: Q01DX001 (ip), vehicle: Klucel (hydroxypropylcellulose) (HPC)
[12] = dose: 200.0 mg/kg/injection, schedule: Q01DX001 (ip), vehicle: Klucel (hydroxypropylcellulose) (HPC)
[13] = dose: 400.0 mg/kg/injection, schedule: Q01DX001 (ip), vehicle: Klucel (hydroxypropylcellulose) (HPC)
[14] = dose: 75.0 mg/kg/injection, schedule: Q01DX001 (ip), vehicle: saline
[15] = dose: 100.0 mg/kg/injection, schedule: Q01DX009 (ip), vehicle: saline with Tween-80
[16] = dose: 200.0 mg/kg/injection, schedule: Q01DX009 (ip), vehicle: saline with Tween-80
[17] = dose: 100.0 mg/kg/injection, schedule: Q04DX003 (ip), vehicle: saline
[18] = dose: 100.0 mg/kg/injection, schedule: Q01DX009 (ip), vehicle: Klucel (hydroxypropylcellulose) (HPC)
[19] = dose: 50.0 mg/kg/injection, schedule: Q01DX009 (ip), vehicle: saline with Tween-80
[20] = dose: 100.0 mg/kg/injection, schedule: Q01DX009 (ip), vehicle: saline
[21] = dose: 200.0 mg/kg/injection, schedule: Q01DX009 (ip), vehicle: saline

Measured: T/C

CCOC(=O)C(Br)c1cccc(OC)c1 (centres undefined)
inactive: dose: 100.0 mg/kg/injection, schedule: Q01DX009 (ip), vehicle: saline sonified 107 % of control | dose: 100.0 mg/kg/injection, schedule: Q04DX003 (ip), vehicle: saline sonified 117 % of control | dose: 132.0 mg/kg/injection, schedule: Q04DX003 (ip), vehicle: saline sonified 104 % of control | dose: 200.0 mg/kg/injection, schedule: Q01DX009 (ip), vehicle: saline sonified 96 % of control | dose: 200.0 mg/kg/injection, schedule: Q04DX003 (ip), vehicle: saline sonified 96 % of control | dose: 300.0 mg/kg/injection, schedule: Q04DX003 (ip), vehicle: saline sonified 89 % of control | dose: 400.0 mg/kg/injection, schedule: Q01DX009 (ip), vehicle: saline sonified 98 % of control | dose: 400.0 mg/kg/injection, schedule: Q04DX003 (ip), vehicle: saline sonified 106 % of control

C#CCOC(=O)C1C2CCC(O2)C1C(=O)O (centres undefined)
inactive: dose: 1.25 mg/kg/injection, schedule: Q01DX009 (ip), vehicle: saline 100 % of control | dose: 2.5 mg/kg/injection, schedule: Q01DX009 (ip), vehicle: saline 109 % of control

CCOC(=O)c1c(N)[nH]c(SSc2[nH]c(N)c(C(=O)OCC)c2C(=O)OCC)c1C(=O)OCC
inactive: [1] 99 % of control | [2] 96 % of control | [3] 89 % of control

CCN(CC)CCCC(C)Nc1nccc(/C=C/c2ccc(Cl)cc2)n1 (centres undefined)
inactive: dose: 100.0 mg/kg/injection, schedule: Q01DX001 (ip), vehicle: saline 96 % of control | [4] 90 % of control | dose: 200.0 mg/kg/injection, schedule: Q01DX001 (ip), vehicle: saline 105 % of control | dose: 400.0 mg/kg/injection, schedule: Q01DX001 (ip), vehicle: saline 100 % of control | [5] 94 % of control

CC(=O)CC(=O)Nc1cccc(O)c1
inactive: [6] 91 % of control | [7] 100 % of control

O=C1c2cccc3c([N+](=O)[O-])ccc(c23)C(=O)N1Cc1ccco1
inactive: [8] 108 % of control | [9] 97 % of control | [10] 102 % of control

NC(=O)N/N=C1/CCCC(C(=O)O)C1 (centres undefined)
inactive: [11] 105 % of control | [4] 102 % of control | [12] 109 % of control | dose: 200.0 mg/kg/injection, schedule: Q04DX003 (ip), vehicle: Klucel (hydroxypropylcellulose) (HPC) 98 % of control | [13] 103 % of control | [5] 100 % of control

CC/C(=N\[N+](C)(C)C)c1ccccc1
inactive: dose: 18.8 mg/kg/injection, schedule: Q04DX003 (ip), vehicle: saline 100 % of control | dose: 37.5 mg/kg/injection, schedule: Q04DX003 (ip), vehicle: saline 97 % of control | [14] 100 % of control | dose: 75.0 mg/kg/injection, schedule: Q04DX003 (ip), vehicle: saline 100 % of control

CCC/C=C(\C)C(C)(C#N)C(=O)OCC (centres undefined)
inactive: dose: 75.0 mg/kg/injection, schedule: Q01DX001 (ip), vehicle: other 112 % of control | dose: 150.0 mg/kg/injection, schedule: Q01DX001 (ip), vehicle: other 98 % of control | dose: 300.0 mg/kg/injection, schedule: Q01DX001 (ip), vehicle: other 110 % of control

CC(=O)OCc1cc2ccccc2nc1C
inactive: [15] 110 % of control | [1] 102 % of control | [16] 104 % of control | [2] 96 % of control | dose: 400.0 mg/kg/injection, schedule: Q01DX009 (ip), vehicle: saline with Tween-80 98 % of control | [3] 96 % of control

CC(=O)Nc1ccc(Cl)cc1
inactive: dose: 50.0 mg/kg/injection, schedule: Q01DX001 (ip), vehicle: other 101 % of control | dose: 100.0 mg/kg/injection, schedule: Q01DX001 (ip), vehicle: other 98 % of control | dose: 200.0 mg/kg/injection, schedule: Q01DX001 (ip), vehicle: other 101 % of control | dose: 400.0 mg/kg/injection, schedule: Q01DX001 (ip), vehicle: other 106 % of control

CC(N)(C(=O)O)c1ccccc1 (centres undefined)
inactive: dose: 50.0 mg/kg/injection, schedule: Q04DX003 (ip), vehicle: saline 96 % of control | [17] 89 % of control | dose: 200.0 mg/kg/injection, schedule: Q04DX003 (ip), vehicle: saline 102 % of control

CCOC(=O)Nc1ccc(Cl)c(Cl)c1
inactive: [18] 98 % of control | [6] 101 % of control | [7] 108 % of control

Clc1ccc2c(n1)Sc1c(Cl)nc(Cl)nc1N2
inactive: [11] 95 % of control | [12] 108 % of control | [13] 93 % of control

O/N=C/CCCC/C=N/O
inactive: [19] 91 % of control | [15] 91 % of control | [16] 91 % of control

Cc1cc([N+](=O)[O-])c(P(=O)(O)O)cc1Cl
inactive: [14] 93 % of control | dose: 150.0 mg/kg/injection, schedule: Q01DX001 (ip), vehicle: saline 91 % of control | dose: 300.0 mg/kg/injection, schedule: Q01DX001 (ip), vehicle: saline 96 % of control

COc1ccc([N+](=O)[O-])c2conc12
inactive: [19] 95 % of control | [15] 98 % of control | [16] 103 % of control

O=[N+]([O-])c1ccccc1/C=N/N1CCN(/N=C/c2ccccc2[N+](=O)[O-])CC1
inactive: dose: 200.0 mg/kg/injection, schedule: Q01DX001 (ip), vehicle: carboxymethylcellulose (CMC) 89 % of control | dose: 400.0 mg/kg/injection, schedule: Q01DX001 (ip), vehicle: carboxymethylcellulose (CMC) 89 % of control

O=C1Nc2ccc(Br)cc2C1(O)Cc1cccc([N+](=O)[O-])c1 (centres undefined)
inactive: [19] 90 % of control | [15] 93 % of control | dose: 100.0 mg/kg/injection, schedule: Q04DX002 (ip), vehicle: saline with Tween-80 91 % of control | [16] 90 % of control | dose: 200.0 mg/kg/injection, schedule: Q04DX002 (ip), vehicle: saline with Tween-80 91 % of control

Cc1cc(O)c(O)c(C(C)(C)C)c1
inactive: dose: 100.0 mg/kg/injection, schedule: Q04DX002 (ip), vehicle: other 102 % of control | dose: 200.0 mg/kg/injection, schedule: Q04DX002 (ip), vehicle: other 87 % of control

O=C(Nc1ccc(Br)cc1)Nc1ccccc1F
inactive: [18] 98 % of control | [6] 93 % of control | [7] 98 % of control

C=CCOCC1CO1 (centres undefined)
inactive: dose: 75.0 mg/kg/injection, schedule: Q01DX001 (ip), vehicle: acetone 101 % of control | dose: 150.0 mg/kg/injection, schedule: Q01DX001 (ip), vehicle: acetone 97 % of control | dose: 300.0 mg/kg/injection, schedule: Q01DX001 (ip), vehicle: acetone 105 % of control

CCCC(/C=N\NC(=O)c1ccc[n+](C)c1)CC (centres undefined)
inactive: dose: 50.0 mg/kg/injection, schedule: Q01DX009 (ip), vehicle: saline 103 % of control | [20] 103 % of control | [21] 100 % of control

N#CNc1nc(-c2ccccc2)cc(-c2ccccc2O)n1
inactive: [8] 98 % of control | [9] 95 % of control | [10] 109 % of control

[Cl][Co][Cl].[NH-]CCN1CC1
inactive: [17] 90 % of control

c1ccc(N(c2ccccc2)[Si](c2ccccc2)(c2ccccc2)c2ccccc2)cc1
inactive: dose: 25.6 mg/kg/injection, schedule: Q04DX002 (ip), vehicle: saline with Tween-80 93 % of control | dose: 64.0 mg/kg/injection, schedule: Q04DX002 (ip), vehicle: saline with Tween-80 93 % of control | dose: 160.0 mg/kg/injection, schedule: Q04DX002 (ip), vehicle: saline with Tween-80 97 % of control | dose: 400.0 mg/kg/injection, schedule: Q04DX002 (ip), vehicle: saline with Tween-80 104 % of control

CC(C)(C)CC(C)(C)c1ccc(OCCOc2ccc(S(=O)(=O)O)cc2[N+](=O)[O-])cc1
inactive: [20] 105 % of control | [21] 105 % of control | dose: 400.0 mg/kg/injection, schedule: Q01DX009 (ip), vehicle: saline 100 % of control

Cc1cc2c(cc1C)C(=O)C(N1CCN(C)CC1)CCC2 (centres undefined)
inactive: [1] 101 % of control
